Data as given in patent US20220279787A1, “a-Substituted Phenyl Structure-Containing Compound, Preparation Method Thereof, and Disinfectant” (Henan Ruibo Pharmaceutical Technology Co. Ltd., priority 2019, published 2022).

Key:
Format in all cases: cell-based
[1] = system: Escherichia coli ATCC 25922; experiment: Neutralizer identification experiment, Escherichia coli
Protocol: (§1) (4) Experimental Method for Selecting a Neutralizer:
(§2) Escherichia coli ATCC 25922 and Staphylococcus aureus ATCC 29213 were used as the experimental strains, and the concentration of the drug to be tested was set to be 2.5 g/L. The experiment was carried out according to the suspension quantitative sterilization procedure, with three repetitions, and six parallel groups:
(§3) Group I: 100 μL of a bacterial suspension (Escherichia coli ATCC 25922 with a concentration of 1×10^8 CFU/mL and Staphylococcus aureus ATCC 29213 with a concentration of 1×10^8 CFU/mL) interacted with 400 μL of the drug to be tested for 5 min; 50 μL of the mixed solution and 450 μL of PBS buffer were mixed to be uniform and diluted; the viable bacteria therein was counted;
(§4) Group II: 100 μL a bacterial suspension (Escherichia coli ATCC 25922 with a concentration of 1×10^8 CFU/mL and Staphylococcus aureus ATCC 29213 with a concentration of 1×10^8 CFU/mL) interacted with 400 μL of the drug to be tested for 5 min; 50 μL of the mixed solution and 450 μL of a neutralizer were mixed to be uniform and reacted for 10 min, and diluted; the viable bacteria therein was counted;
(§5) Group III: 10 μL of a bacterial suspension, 40 μL of sterile water, and 450 μL of a neutralizer were reacted for 10 min; the reaction solution was diluted, and the viable bacteria therein was counted;
(§6) Group V: 100 μL of bacterial suspension and 400 μL of a neutralizer were reacted for 5 min; 50 μL of the mixture and 450 μL of PBS buffer were mixed to be uniform, and then diluted; the viable bacteria therein was counted;
(§7) Group VI: a mixture of culture medium and PBS buffer was used as negative control.
(§8) Determination of the Results:
(§9) Group I had no bacteria growth or a small amount of bacteria growth;
(§10) Group II had bacteria growth, and the number of bacteria was not less than 100 CFU/mL;
(§11) the error rate of the number of bacteria between the Group III, Group IV, and Group V was less than or equal to 15%;
(§12) Group VI had no bacteria growth.

[2] = system: Staphylococcus aureus ATCC 29213; experiment: Neutralizer identification experiment, Staphylococcus aureus
Protocol: as §1, §2, §3, §4, §5, §6, §7, §8, §9, §10, §11, §12

[3] = system: Bacillus subtilis var. niger spores ATCC 9372; experiment: Suspension quantitative experiment, Bacillus subtilis var. niger spores; conditions: for Killing logarithmic value: suspension method
Protocol: (4) Operation Method of Suspension Quantitative Experiment:
a. The Bacillus subtilis var. niger spores ATCC 9372 freeze-dried strain tube was provided, opened up under an aseptic condition, and an appropriate amount of nutrient broth was added thereto with a capillary pipette. The strain was melted and dispersed by gently blowing and sucking several times. A test tube containing 5.0 mL-10.0 mL of nutrient broth medium was provided, and a small amount of bacterial suspension was dropped thereto, and incubated at 37° C. for 18 h-24 h. The bacterial suspension of the first generation culture was taken by using an inoculation loop.
b. The monoclonal strains of the first generation culture were picked out and placed in 3 mL of NMB. The strains were shaken in a constant temperature culture shaker for 3 h with a rotation speed of 220 rpm, obtaining a bacterial suspension with a concentration of (1-5)×10^8 CFU/mL.
c. 0.5 mL of bacterial suspension was added to a sterile test tube, and 0.5 mL of an organic interfering substance (0.03 mol/L PBS buffer) was then added thereto. They were mixed to be uniform, and placed in a water bath at 20° C.±1° C. for 5 min. 4.0 mL of the sample to be tested prepared in step (1) was drawn with a sterile pipette and injected into the mixed solution, mixed quickly, and the time was recorded immediately.
d. After the experimental bacteria interacted with the sample to be tested for the predetermined time. 0.5 mL of the mixture of the experimental bacteria and a disinfectant was drawn respectively and added to 4.5 mL of a neutralizer, and mixed to be uniform.
e. After 10 min of neutralization, 1.0 mL of the sample solution was drawn, and the number of viable bacteria was determined by viable count method. After the viable count method, sample solution of each pipette was inoculated onto 2 plates. When the number of colonies growing on the plate was large, 10-fold dilution was performed, and then the viable bacteria was cultured and counted.
h. At the same time, PBS buffer was used to replace the sample to be tested, and a parallel test was performed as a positive control.
f. All test samples were placed in a 37° C. incubator overnight, and the results were observed.
g. The experiment was repeated for 3 times, the concentration of viable bacteria (CFU/mL) of each group was calculated, and converted to logarithmic value (N), and then the killing logarithmic value was calculated according to the following equation:
Killing logarithmic value (KL)=the logarithmic value of the average viable bacteria concentration of the control group (No)−the logarithmic value of the viable bacteria concentration of the test group (Nx).
When calculating the killing logarithmic value, two digits after the decimal point was kept, and digital round-off was allowed.

[4] = system: Bacillus subtilis var. niger spores ATCC 9372; experiment: Carrier immersion quantitative sterilization test; conditions: carrier method
Protocol: (5) Operation Method of the Carrier Immersion Quantitative Sterilization Test:
a. A sterile small plate was provided, and marked with the concentration of the sample to be tested injected. The sample to be tested of the corresponding concentration was drawn and injected into the plate in an amount of 5.0 mL per piece.
b. 3 pieces of Bacillus subtilis var. niger spores were placed on the plate by using a sterile tweezer, and soaked in the sample to be tested.
c. After the bacteria and drugs interacted for each predetermined time, the bacteria pieces were taken out by using a sterile tweezer and transferred into a test tube containing 5.0 mL of a neutralizer. The test tube was vibrated 80 times in the palm of the hand to wash the bacteria on the bacteria piece into the neutralization solution, left to stand for another 10 min to fully neutralize. Finally after further mixing, 1.0 mL of the mixture was drawn and directly inoculated onto the plate, 2 plates for each pipette, and the number of viable bacteria was determined.
d. Another plate was provided, and 10.0 mL of PBS buffer was injected instead of the sample to be tested. 2 pieces of bacteria were added thereto as the positive control group, and the subsequent test steps and viable bacteria culture and counting were the same as the above test groups.
e. All test samples were cultured overnight in a 37° C. incubator, and the results were observed.
f. The experiment was repeated for 3 times (including the control group), and the number of viable bacteria (CFU/piece) in each group was calculated and converted to a logarithmic value (N).

[5] = 2.5 g/L drug reacted with neutralizer 10 min, then bacterial suspension added
[6] = 2.5 g/L drug, 5 min, then mixed with PBS buffer
[7] = 2.5 g/L drug, 5 min, then neutralizer 10 min

CNC(=O)C(c1ccc(O)c(O)c1)c1ccco1 (stereo not shown) [Example 5, 2-(3,4-dihydroxyphenyl)-2-(2-furyl)-N-methylacetamide]
Viable bacteria count, Group IV [1, 5]: 6 × 10^6 CFU/mL | Viable bacteria count, Group I [1, 6]: 2 × 10^4 CFU/mL | Viable bacteria count, Group II [1, 7]: 400 CFU/mL | Viable bacteria count, Group IV [2, 5]: 7 × 10^5 CFU/mL | Viable bacteria count, Group I [2, 6]: 3 × 10^4 CFU/mL | Viable bacteria count, Group II [2, 7]: 5 × 10^4 CFU/mL | log reduction at 15000 µg/mL ([3]; Bacillus subtilis, ATCC9372, 0.5 h, read-out: Activity (killing logarithmic value)): 5.6

O=Cc1ccccc1C=O [o-Phthalaldehyde solution, o-Phthalaldehyde]
Killing logarithmic value ([3]; 5 g/L, 10 min): 5.23 | Killing logarithmic value ([3]; 5 g/L, 20 min): 5.31 | Killing logarithmic value ([3]; 5 g/L, 30 min): 5.39 | Killing logarithmic value ([3]; 10 g/L, 10 min): 5.41 | Killing logarithmic value ([3]; 10 g/L, 20 min): 5.49 | Killing logarithmic value ([3]; 10 g/L, 30 min): 5.57 | Killing logarithmic value ([3]; 15 g/L, 10 min): 5.53 | Killing logarithmic value ([3]; 15 g/L, 20 min): 5.68 | Killing logarithmic value ([3]; 15 g/L, 30 min): 5.71 | Killing logarithmic value ([4]; 5 g/L, 1 h): 1.95 | Killing logarithmic value ([4]; 5 g/L, 2 h): 3.23 | Killing logarithmic value ([4]; 5 g/L, 3 h): 5.21 | Killing logarithmic value ([4]; 5 g/L, 4 h): 5.53 | Killing logarithmic value ([4]; 10 g/L, 1 h): 2.19 | Killing logarithmic value ([4]; 10 g/L, 2 h): 5.12 | Killing logarithmic value ([4]; 10 g/L, 3 h): 5.26 | Killing logarithmic value ([4]; 10 g/L, 4 h): 5.53 | Killing logarithmic value ([4]; 15 g/L, 1 h): 3.23 | Killing logarithmic value ([4]; 15 g/L, 2 h): 5.21 | Killing logarithmic value ([4]; 15 g/L, 3 h): 5.36 | Killing logarithmic value ([4]; 15 g/L, 4 h): 5.53
